Data published in patent EP2599789A1, “Marker and method for diagnosing diarrhea syndrome” (Bergen Teknologioverføring AS, priority 2011, dated 2013).
Values joined by “and” are separate entries in the source; they are usually repeats but may differ in a detail not shown here. Equal values may be shown once. “Also recorded” adds a separate entry of the source.

What was measured:
[1] = tested on: familial diarrhea syndrome patients; assay: Metformin treatment trial (I), pilot study in patients; type: in vivo, human
Protocol: A pilot study (I) with metformin was performed in six individuals from branch A, with a low peroral dose of 500 mg twice daily. The trial lasted 10 weeks, and the patients registered number of stools (and texture) during week 1, 5 and 10. The first week was without treatment and the patients received 500 mg x 2 during weeks 2- 5. Weeks 6 - 10 were without treatment. […] Number of stools per week was reduced by 40% in two patients with high stool frequency (35-36 per week). Three patients reported that stools were firmer during treatment.

[2] = tested on: familial diarrhea syndrome patients; assay: Metformin treatment trial (II), pilot study with increasing metformin doses; type: in vivo, human; conditions: four of five individuals
Protocol: The dose given in the first metformin treatment trial (Table 2) was modest, and another pilot study with increasing metformin doses was started, including five individuals with high stool frequencies (22-42 per week). Patients with a history of ileus or inflammatory bowel disease were not included. Stool frequency was recorded continously for eight weeks. At day 1 of each week, blood samples were drawn for control of s-glucose, hemoglobin and creatinine. Symptoms and potential side-effects were followed closely by a weekly telephone call from the gastroenterologist.
The patients were without medication in week 1, and then the dose of metformin was increased each week as shown by the horizontal bars, starting at the beginning of week 2 and stopping by the end of week 5. Patient identifiers are listed in bold red letters in the panels.

[3] = target: mutant guanylate cyclase C GC-C S840I (p.Ser840Ile), transiently expressed in HEK293T cells (human); assay: cell-based or functional assay
[4] = peroral 500 mg twice daily during weeks 2-5

Molecule	Side effects [1, 4]	Week 5 Stool firmness [1, 4]	Week 5 Stools per week ([1]; peroral 500 mg twice daily during weeks 2-5, week 1 (baseline) and weeks 6-10 without treatment)	stools during treatment (patient-reported firmness) ([1]; three of six patients, 500 mg twice daily)	Number of stools per week was reduced by ([1]; two patients with high stool frequency (35-36 per week), 500 mg twice daily) [%]	dose-response effect on number of stools ([2]; weeks 2-5)	reduction in weekly average stools/day ([2]; weeks 2-5)	maximal reduction of number of stools ([2]; weeks 2-5 (Fig. 4))	EC50 of uroguanylin for cGMP production, relative to the WT receptor (fold lower than WT) [3]
CN(C)C(=N)NC(=N)N [metformin, 1,1-dimethylbiguanide]	Intermittent nausea and None (4×) and Increased bloating	Increased	13 (2×) and 18 and 20 (2×) and 22	firmer	40	clear dose-response effect; also recorded: significant dose-response effect	30-40%	30-40%	–
uroguanylin peptide (from UniProt Q16661 97-112)	–	–	–	–	–	–	–	–	6
